Where “and” joins values, the source holds several entries; their conditions need not be identical. Equal values may be shown once. Toxic doses and inconclusive results are not listed. Cut-off read from the data, not from the text of the source: active = T/C of 150% or more; inactive = T/C below 125%.
System: L1210 leukemia ip in BDF1 mice, survival T/C
Test: NCI In Vivo Anticancer Drug Screen. Data for tumor model L1210 Leukemia (intraperitoneal) in B6D2F1 (BDF1) mice
Settings: endpoint: mean survival time, higher = longer survival
How it was run: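 Tumor cells were implanted, animals were treated, and survival was followed. The result divides the treated measurement by the vehicle-control measurement.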

[1] = dose: 100.0 mg/kg/injection, schedule: Q01DX001 (ip), vehicle: saline
[2] = dose: 100.0 mg/kg/injection, schedule: Q04DX003 (ip), vehicle: acetone
[3] = dose: 200.0 mg/kg/injection, schedule: Q01DX001 (ip), vehicle: saline
[4] = dose: 200.0 mg/kg/injection, schedule: Q04DX003 (ip), vehicle: acetone
[5] = dose: 400.0 mg/kg/injection, schedule: Q01DX001 (ip), vehicle: saline
[6] = dose: 100.0 mg/kg/injection, schedule: Q01DX009 (ip), vehicle: saline with Tween-80
[7] = dose: 200.0 mg/kg/injection, schedule: Q01DX009 (ip), vehicle: saline with Tween-80
[8] = dose: 400.0 mg/kg/injection, schedule: Q01DX009 (ip), vehicle: saline with Tween-80
[9] = dose: 100.0 mg/kg/injection, schedule: Q01DX001 (ip), vehicle: carboxymethylcellulose (CMC)
[10] = dose: 200.0 mg/kg/injection, schedule: Q01DX001 (ip), vehicle: carboxymethylcellulose (CMC)
[11] = dose: 400.0 mg/kg/injection, schedule: Q01DX001 (ip), vehicle: carboxymethylcellulose (CMC)
[12] = dose: 100.0 mg/kg/injection, schedule: Q04DX003 (ip), vehicle: saline with Tween-80
[13] = dose: 200.0 mg/kg/injection, schedule: Q04DX003 (ip), vehicle: saline with Tween-80
[14] = dose: 400.0 mg/kg/injection, schedule: Q04DX003 (ip), vehicle: saline with Tween-80
[15] = dose: 100.0 mg/kg/injection, schedule: Q04DX003 (ip), vehicle: Klucel (hydroxypropylcellulose) (HPC)
[16] = dose: 200.0 mg/kg/injection, schedule: Q04DX003 (ip), vehicle: Klucel (hydroxypropylcellulose) (HPC)
[17] = dose: 50.0 mg/kg/injection, schedule: Q01DX009 (ip), vehicle: Klucel (hydroxypropylcellulose) (HPC)

Measured: T/C

O=C(Nc1nccs1)c1ccc(C(=O)Nc2nccs2)cc1
inactive: dose: 15.0 mg/kg/injection, schedule: Q01DX Z (ip), vehicle: carboxymethylcellulose (CMC) 93 % of control | dose: 30.0 mg/kg/injection, schedule: Q01DX Z (ip), vehicle: carboxymethylcellulose (CMC) 100 % of control | dose: 60.0 mg/kg/injection, schedule: Q01DX Z (ip), vehicle: carboxymethylcellulose (CMC) 100 % of control | dose: 120.0 mg/kg/injection, schedule: Q01DX Z (ip), vehicle: carboxymethylcellulose (CMC) 100 % of control and 90 % of control | dose: 180.0 mg/kg/injection, schedule: Q01DX Z (ip), vehicle: carboxymethylcellulose (CMC) 96 % of control | dose: 270.0 mg/kg/injection, schedule: Q01DX Z (ip), vehicle: carboxymethylcellulose (CMC) 96 % of control | dose: 400.0 mg/kg/injection, schedule: Q01DX Z (ip), vehicle: carboxymethylcellulose (CMC) 95 % of control

CC(C)c1cc(C(C)C)c(S(=O)(=O)/C=C/c2ccccc2)c(C(C)C)c1
inactive: [1] 104 % of control | dose: 100.0 mg/kg/injection, schedule: Q01DX009 (ip), vehicle: saline 91 % of control | [2] 100 % of control | [3] 97 % of control | dose: 200.0 mg/kg/injection, schedule: Q01DX009 (ip), vehicle: saline 93 % of control | [4] 97 % of control | [5] 92 % of control | dose: 400.0 mg/kg/injection, schedule: Q01DX009 (ip), vehicle: saline 89 % of control | dose: 400.0 mg/kg/injection, schedule: Q04DX003 (ip), vehicle: acetone 105 % of control

NC(Cc1c[nH]c2ccccc12)C(=O)OCc1ccccc1 (configuration not stated)
inactive: dose: 6.25 mg/kg/injection, schedule: Q01DX009 (ip), vehicle: water 101 % of control | dose: 12.5 mg/kg/injection, schedule: Q01DX009 (ip), vehicle: water 99 % of control | dose: 25.0 mg/kg/injection, schedule: Q01DX009 (ip), vehicle: water 98 % of control and 106 % of control | dose: 50.0 mg/kg/injection, schedule: Q01DX009 (ip), vehicle: water 107 % of control | [6] 104 % of control | dose: 100.0 mg/kg/injection, schedule: Q01DX009 (ip), vehicle: water 97 % of control and 86 % of control | [7] 104 % of control | [8] 93 % of control

CCOC(=O)n1cccc(C)c1=N
inactive: [9] 102 % of control | [10] 100 % of control | [11] 102 % of control

CCOC(=O)CCC(C(=O)OCC)C(=O)OCC
inactive: [6] 86 % of control | [12] 106 % of control | [7] 88 % of control | [13] 103 % of control | [8] 88 % of control | [14] 94 % of control

Cc1ccc(C(c2ccc(C)cc2)C(Cl)(Cl)Cl)cc1
inactive: dose: 100.0 mg/kg/injection, schedule: Q01DX001 (ip), vehicle: saline sonified 93 % of control | dose: 200.0 mg/kg/injection, schedule: Q01DX001 (ip), vehicle: saline sonified 96 % of control | dose: 400.0 mg/kg/injection, schedule: Q01DX001 (ip), vehicle: saline sonified 88 % of control

Nc1cccc(OCCOc2ccc([N+](=O)[O-])cc2)c1
inactive: [1] 102 % of control | [3] 104 % of control | [5] 100 % of control

O=c1cc(Cc2ccc(F)cc2)[nH]c(=O)[nH]1
inactive: dose: 25.0 mg/kg/injection, schedule: Q01DX001 (ip), vehicle: Klucel (hydroxypropylcellulose) (HPC) 97 % of control | dose: 50.0 mg/kg/injection, schedule: Q01DX001 (ip), vehicle: Klucel (hydroxypropylcellulose) (HPC) 101 % of control | dose: 100.0 mg/kg/injection, schedule: Q01DX001 (ip), vehicle: Klucel (hydroxypropylcellulose) (HPC) 96 % of control

COC(=O)C1CC(NC(C)=O)C(OC(C)=O)C1OC(C)=O (configuration not stated)
inactive: [1] 94 % of control | [3] 94 % of control | [5] 104 % of control

CCOC(=O)/C(C#N)=C\C1(C)CCC(C)=CO1 (configuration not stated)
inactive: [6] 96 % of control | dose: 100.0 mg/kg/injection, schedule: Q04DX002 (ip), vehicle: saline with Tween-80 92 % of control | [7] 110 % of control | dose: 200.0 mg/kg/injection, schedule: Q04DX002 (ip), vehicle: saline with Tween-80 115 % of control | [8] 100 % of control | dose: 400.0 mg/kg/injection, schedule: Q04DX002 (ip), vehicle: saline with Tween-80 96 % of control

CC(=N/N(Cc1ccccc1)c1ccccc1)/C(C)=N/N(Cc1ccccc1)c1ccccc1
inactive: dose: 100.0 mg/kg/injection, schedule: Q01DX001 (ip), vehicle: other 89 % of control | dose: 200.0 mg/kg/injection, schedule: Q01DX001 (ip), vehicle: other 89 % of control | dose: 400.0 mg/kg/injection, schedule: Q01DX001 (ip), vehicle: other 89 % of control

[N-]=[N+]=C1C(Cl)=C(Cl)C(Cl)=C1Cl
inactive: dose: 75.0 mg/kg/injection, schedule: Q01DX001 (ip), vehicle: other 96 % of control | dose: 150.0 mg/kg/injection, schedule: Q01DX001 (ip), vehicle: other 102 % of control

C/C(CCC(=O)O)=N\NC(=O)COc1ccc(Cl)cc1Cl
inactive: [15] 94 % of control | [16] 98 % of control

CCC1(/C(C)=C/C(C)C)C(=O)NC(=O)NC1=O
inactive: dose: 5.0 mg/kg/injection, schedule: Q01DX001 (ip), vehicle: saline 96 % of control | dose: 10.0 mg/kg/injection, schedule: Q01DX001 (ip), vehicle: saline 101 % of control

NNC(=O)c1ccc(N)cc1
inactive: dose: 50.0 mg/kg/injection, schedule: Q01DX001 (ip), vehicle: carboxymethylcellulose (CMC) 95 % of control | dose: 50.0 mg/kg/injection, schedule: Q01DX009 (ip), vehicle: saline with Tween-80 93 % of control | [9] 86 % of control | [6] 104 % of control | [10] 95 % of control | [7] 100 % of control | [11] 103 % of control

S=C(N/N=C1\C=Cc2ccccc2C1)N/N=C1\C=Cc2ccccc2C1
inactive: [1] 92 % of control | [3] 95 % of control | [5] 95 % of control

COC(=O)c1nc(C(=O)OC)c(C(=O)OC)nc1C(=O)OC
inactive: [12] 88 % of control | [13] 93 % of control | [14] 102 % of control

CC(=O)Oc1c2c(n3c1CCC3)CC(C)CC2=O (configuration not stated)
inactive: dose: 50.0 mg/kg/injection, schedule: Q04DX002 (ip), vehicle: Klucel (hydroxypropylcellulose) (HPC) 97 % of control | dose: 100.0 mg/kg/injection, schedule: Q04DX002 (ip), vehicle: Klucel (hydroxypropylcellulose) (HPC) 97 % of control | dose: 200.0 mg/kg/injection, schedule: Q04DX002 (ip), vehicle: Klucel (hydroxypropylcellulose) (HPC) 102 % of control

O=NC1C(Cl)C2CC1C1C=CCC12 (configuration not stated)
inactive: dose: 12.5 mg/kg/injection, schedule: Q01DX009 (ip), vehicle: Klucel (hydroxypropylcellulose) (HPC) 96 % of control | dose: 25.0 mg/kg/injection, schedule: Q01DX009 (ip), vehicle: Klucel (hydroxypropylcellulose) (HPC) 98 % of control | [17] 91 % of control | [6] 97 % of control | [15] 94 % of control | [16] 92 % of control | dose: 400.0 mg/kg/injection, schedule: Q04DX003 (ip), vehicle: Klucel (hydroxypropylcellulose) (HPC) 87 % of control

CCOC(O)(C(F)(F)F)C(F)(F)F
inactive: dose: 12.5 mg/kg/injection, schedule: Q01DX009 (ip), vehicle: saline with Tween-80 96 % of control | dose: 12.5 mg/kg/injection, schedule: Q04DX003 (ip), vehicle: saline with Tween-80 95 % of control | dose: 25.0 mg/kg/injection, schedule: Q01DX009 (ip), vehicle: saline with Tween-80 105 % of control | dose: 50.0 mg/kg/injection, schedule: Q04DX003 (ip), vehicle: saline with Tween-80 97 % of control | [1] 98 % of control

CCCCNc1nnnn1CCCC
inactive: [2] 98 % of control | [4] 96 % of control

Cn1c(=O)c2ccccc2c2cc([N+](=O)[O-])ccc21
inactive: [17] 93 % of control | dose: 100.0 mg/kg/injection, schedule: Q01DX009 (ip), vehicle: Klucel (hydroxypropylcellulose) (HPC) 97 % of control | [15] 90 % of control | dose: 200.0 mg/kg/injection, schedule: Q01DX009 (ip), vehicle: Klucel (hydroxypropylcellulose) (HPC) 97 % of control | [16] 94 % of control

C[N+](C)(C)N1C(=O)C2C3c4ccccc4C(C2C1=O)[n+]1ccccc13 (configuration not stated)
inactive: dose: 9.38 mg/kg/injection, schedule: Q01DX001 (ip), vehicle: other 86 % of control | dose: 18.75 mg/kg/injection, schedule: Q01DX001 (ip), vehicle: other 105 % of control
